According to patent publication US6548539B1, “Agents for regulation of colon cancer gene expression” (Avalon Pharmaceuticals, priority 2001, dated 2003):

Legend:
Type in all cases: cell-based, human
Settings in all cases: HT29 cell line (colon tumor), compound 10 μM, 24 hours, vs control
Gene 5 = assay: Gene modulating activity in colon cancer cells (RT-PCR RNA expression), Gene 5
Protocol: (§1) In such assays, primary cells, or tissue samples, are maintained in growth medium and are treated with compounds at a single concentration (10 μM for the data of Table 1) or at a range of concentrations (such as from 1 μM up to 100 μM). At specific times after treatment at the given concentration of test compound, cellular RNAs are isolated from the treated cells, primary cells or tumors, which RNAs are indicative of expression of selected genes, including, but not limited to, the genes used herein. The cellular RNA is then divided and subjected to analysis that detects the presence and/or quantity of specific RNA transcripts, which transcripts may then be amplified for detection purposes using standard methodologies, such as, for example, reverse transcriptase polymerase chain reaction (RT-PCR), etc. The presence or absence, or levels, of specific RNA transcripts are determined from these measurements and a metric derived for the type and degree of response of the sample to the treated compound compared to control samples. One such procedure is shown in example 8 where test compound may or may not be present.
(§2) HT29 cells are grown to a density of 10^5 cells/cm^2 in Leibovitz's L-15 medium supplemented with 2 mM L-glutamine (90%) and 10% fetal bovine serum. The cells are collected after treatment with 0.25% trypsin, 0.02% EDTA at 37° C. for 2 to 5 minutes. The trypsinized cells are then diluted with 30 ml growth medium and plated at a density of 50,000 cells per well in a 96 well plate (200 μl/well). The following day, cells are treated with either compound buffer alone, or compound buffer containing a chemical agent to be tested, for 24 hours. The media is then removed, the cells lysed and the RNA recovered using the RNAeasy reagents and protocol obtained from Qiagen. […] Reverse transcription is then carried out at 48° C. for 30 minutes. The sample is then applied to a Perlin Elmer 7700 sequence detector and heat denatured for 10 minutes at 95° C. Amplification is performed through 40 cycles using 15 seconds annealing at 60° C. followed by a 60 second extension at 72° C. and 30 second denaturation at 95° C. Data files are then captured and the data analyzed with the appropriate baseline windows and thresholds.
(§3) For testing of the effects of a compound of Table 1, each compound was present at a concentration of 10 μM in the culture medium.
(§4) The quantitative difference between the target and reference genes is then calculated and a relative expression value determined for all of the samples used. This procedure is then repeated for each of the target genes in a given signature, or characteristic, set and the relative expression ratios for each pair of genes is determined (i.e., a ratio of expression is determined for each target gene versus each of the other genes for which expression is measured, where each gene's absolute expression is determined relative to the reference gene for each compound, or chemical agent, to be screened). The samples are then scored and ranked according to the degree of alteration of the expression profile in the treated samples relative to the control. The overall expression of the set of genes relative to the controls, as modulated by one chemical agent relative to another, is also readily ascertained. Chemical agents having the most effect on a given gene, or set of genes, are considered the most therapeutic or anti-neoplastic, depending on the tissues being studied. In each case, the agent was present in the cell culture at a concentration of ten micromolar.
(§5) The sets of genes, or signature sets, useful in the methods of the invention disclosed herein represent a set of genes expressed at a higher level in a cancer cell line derived from colon but not expressed at a higher level in normal colon (for example, genes 1, 2, 4-10 for the data of Table 1) or whose expression is higher in normal cells (for example, genes 3 and 11 for the data of Table 1) relative to the cancer cells. […]

Gene 9 = assay: Gene modulating activity in colon cancer cells (RT-PCR RNA expression), Gene 9
Protocol: as §1, §2, §3, §4, §5

Gene 4 = assay: Gene modulating activity in colon cancer cells (RT-PCR RNA expression), Gene 4
Protocol: as §1, §2, §3, §4, §5

Gene 8 = assay: Gene modulating activity in colon cancer cells (RT-PCR RNA expression), Gene 8
Protocol: as §1, §2, §3, §4, §5

Gene 3 = assay: Gene modulating activity in colon cancer cells (RT-PCR RNA expression), Gene 3
Protocol: as §1, §2, §3, §4, §5

Gene 7 = assay: Gene modulating activity in colon cancer cells (RT-PCR RNA expression), Gene 7
Protocol: as §1, §2, §3, §4, §5

Gene 1 = assay: Gene modulating activity in colon cancer cells (RT-PCR RNA expression), Gene 1
Protocol: as §1, §2, §3, §4, §5

Gene 11 = assay: Gene modulating activity in colon cancer cells (RT-PCR RNA expression), Gene 11
Protocol: as §1, §2, §3
as §4, with “In each case, the agent was present in the cell culture at a concentration of ten micromolar.” left out

Gene 2 = assay: Gene modulating activity in colon cancer cells (RT-PCR RNA expression), Gene 2
Protocol: as §1
For example, Gene 2 was a gene that encodes a kallikrein. Tissue or glandular kallikreins are members of a large and highly conserved family of serine proteases that are central to many physiological processes. They are secreted protein-cleaving enzymes that process for example kininogen (local blood flow, sodium balance, inflammation, cell proliferation), growth factors (EGF, NGF, vasoactive peptide), or other substrates. The prostate antigens hK2 and PSA are members of this family. Diseases in which kallikreins have been implicated include acute pancreatitis, inflammatory arthritis and inflammatory bowel disease, sepsis, enterocolitis, arterial and salt-sensitive hypertension, blood coagulation disorders, scorpion and snake evenomation, infections and cancer. Thus, the chemical agents disclosed herein find use in the treatment and/or prevention of any of these diseases.
as §2, §3
The quantitative difference between the target and reference genes is then calculated and a relative expression value determined for all of the samples used. This procedure is then repeated for each of the target genes in a given signature, or characteristic, set and the relative expression ratios for each pair of genes is determined (i.e., a ratio of expression is determined for each target gene versus each of the other genes for which expression is measured, where each gene's absolute expression is determined relative to the reference gene for each compound, or chemical agent, to be screened). […]

Gene 10 = assay: Gene modulating activity in colon cancer cells (RT-PCR RNA expression), Gene 10
Protocol: as §1, §2, §3, §4, §5

Gene 6 = assay: Gene modulating activity in colon cancer cells (RT-PCR RNA expression), Gene 6
Protocol: as §1, §2, §3, §4, §5

Row | SMILES | Gene 5 Folds of up (+) or down (−) regulatlon (Gene 5) | Gene 9 Folds of up (+) or down (−) regulatlon (Gene 9) | Gene 4 Folds of up (+) or down (−) regulatlon (Gene 4) | Gene 8 Folds of up (+) or down (−) regulatlon (Gene 8) | Gene 3 Folds of up (+) or down (−) regulatlon (Gene 3) | Gene 7 Folds of up (+) or down (−) regulatlon (Gene 7) | Gene 1 Folds of up (+) or down (−) regulatlon (Gene 1) | Gene 11 Folds of up (+) or down (−) regulatlon (Gene 11) | Gene 2 Folds of up (+) or down (−) regulatlon (Gene 2) | Gene 10 Folds of up (+) or down (−) regulatlon (Gene 10) | Gene 6 Folds of up (+) or down (−) regulatlon (Gene 6)
1 | O=C(Nc1ccc(-c2ccccc2)cc1)N(Cc1ccccc1)C1CCCC1Sc1ccccc1 (stereo not drawn) [AV-1030] | 2.5 Folds | −2.6 Folds | 1.1 Folds | −2.6 Folds | −1.1 Folds | −1.1 Folds | 2.1 Folds | −4.6 Folds | 3.7 Folds | −2.5 Folds | 1.4 Folds
2 | COCCN(C(=O)COc1ccccc1)C1CCCC1Sc1ccccc1 (stereo not drawn) [AV-1241] | 1.2 Folds | 9.2 Folds | 2.0 Folds | 2.1 Folds | 29.9 Folds | 26.0 Folds | 1.9 Folds | 27.9 Folds | 1.7 Folds | 13.0 Folds | 2.8 Folds
3 | CCCN(C(=O)Nc1ccc(-c2ccccc2)cc1)C1COCC1SC (stereo not drawn) [AV-916] | −1.2 Folds | −6.5 Folds | −1.3 Folds | −3.0 Folds | −8.0 Folds | −1.2 Folds | −2.1 Folds | −3.7 Folds | −1.1 Folds | −8.6 Folds | 1.0 Folds
4 | CSC1CCCC1NC(=O)Nc1cccc(Cl)c1 (stereo not drawn) [AV-988] | 1.9 Folds | 1.3 Folds | 1.9 Folds | 1.7 Folds | −11.3 Folds | 1.2 Folds | 2.6 Folds |  | 2.3 Folds | −4.6 Folds | 2.0 Folds
5 | CC(C)CN(C(=O)c1ccccc1)C1CCCC1Sc1ccccc1 (stereo not drawn) [AV-96] | 2.8 Folds | 2.5 Folds | 2.8 Folds | 2.8 Folds | 3.2 Folds | 5.3 Folds | 3.5 Folds | 3.7 Folds | 2.8 Folds | 1.9 Folds | −4.9 Folds
6 | CCCN(C(=O)c1ccccc1)C1CCCC1Sc1ccccc1 (stereo not drawn) [AV-221] | 1.5 Folds | 1.2 Folds | 1.4 Folds | 1.6 Folds | −3.5 Folds | 90.5 Folds | 64.0 Folds |  | 1.4 Folds | −6.5 Folds | −1.1 Folds
7 | CN(C(=O)C1CCC1)C1CCCCC1Sc1ccccc1 (stereo not drawn) [AV-283] | −1.5 Folds | −3.7 Folds | −1.7 Folds | −1.7 Folds | −4.6 Folds | −3.7 Folds | −2.1 Folds | −34.3 Folds | −1.7 Folds | −3.0 Folds | −3.5 Folds
